Measured values as given in patent US20240415790A1, “A COMPOSITION FOR USE IN THE TREATMENT OF INTERVERTEBRAL DISC HERNIATION” (STAYBLE THERAPEUTICS AB, priority 2020, published 2024).
Where “and” joins values, the source holds several entries; their conditions need not be identical. Equal entries are not always repeated.

Experiments:
[1] = tested on: patients with chronic discogenic low back pain; experiment: Clinical study, exploratory VAS back and leg pain and ODI; assay type: in vivo, human
Source text: Scoring of visual analog scale (VAS) for both back and leg pain and Oswestry Disability Index (ODI) were used as exploratory objectives. The sample size was not based on power calculations but was considered appropriate for a single ascending dose study to provide initial safety data on 3 different dose levels of the LA formulation. The study has been registered on the ClinicalTrials.gov website and on the EU Clinical Trials Register. It was approved by the Stockholm Regional Ethics Committee (approval No. 2016-2323-31/4) and by the Swedish Medical Products Agency (approval No. 5.1-2016-86227).
Disability was evaluated using the ODI.

[2] = tested on: porcine NP and AF; experiment: Macroscopic and histological evaluation of porcine IVD after intradiscal or external LA (series 1 and 2); assay type: in vivo; details: pig
Method: The pigs were placed on the right side. A 6 cm long incision was made from the costal arch to the iliac crest, just lateral to the lateral processes. The lumbar IVDs were approached by a retroperitoneal technique. The L3/4 IVD was incised and 0.2 mL of the LA-formulation (n=6) or the placebo (n=2) was injected under fluoroscopic guidance. The LA-formulation was composed of LA (120 mg/mL) and iohexol (180 mg I/mL) while placebo consisted of iohexol only. The concentration was determined based on the pilot experiments on the effects of LA on collagen secretion from human NP cells (as described in WO 2017/046030). In this set of in vivo experiments, the pH of the placebo formulation was adjusted to the same as the active formulation (about 1.5) using hydrochloric acid. The adjacent IVDs were not injected and served as negative controls. The volume of the pig NP is about 1 mL and it was estimated that 0.2 mL would be an appropriate injection volume. The height and width of normally appearing NP (FIG. 6a) in the anteroposterior (short vertical double arrow) and bilateral (short horizontal double arrow) directions, respectively, were measured and expressed in relation to the height (long vertical double arrow), and width (long horizontal double arrow) of the IVD. […] The group data for NP height as percent of total IVD height are shown in FIG. 7 and the corresponding data for NP width are illustrated in FIG. 8. Further, the IVD was cut in half and photographed. The bilateral width and anteroposterior height of normally appearing NP was measured and expressed as percent of the total IVD width and height, respectively, as depicted in FIGS. 7 and 8. The aim of the second series (including 16 pigs) was to assess the safety and efficacy of the treatment and was part of the regulatory documentation required by the Swedish Medical Products Agency to initiate studies in humans. All procedures were as described above, with the following exceptions. […] In one group of animals, LA or placebo was applied onto the IVD outside the spinal foramen (external application) to assess any tissue damage resulting from leakage from the IVD or a misdirected injection. Due to this experimental design, spinal flexural stiffness was not measured in these pigs. The only other difference between the two series was that exposed tissues were evaluated histologically in the second but not first series. The lumbar spine was removed en bloc and any pathological changes were assessed macroscopically and photographed in extradiscal tissue onto which LA had been applied. Specimens of spinal nerves and muscle tissue were collected, fixed in 10% formalin, and processed for microscopy with hematoxylin/eosin staining. Injected IVDs were cut in half, inspected macroscopically, and photographed. Samples of the IVD were collected and processed for microscopy with hematoxylin/eosin. These turned out to include AF but very little NP so in order to obtain an improved overview of the IVD, the IVDs with adhering vertebrae were decalcified to enable preparation of axial sections of the whole IVD which were stained with Massons's trichrome. FIG. 9 illustrates effects of LA on the AF (A,B) and NP (C-J). LA or placebo (0.2 mL) was injected into IVDs of anesthetized pigs. The animals were sacrificed 4 or 12 weeks post injection and the IVDs were sectioned in half. After fixation in 10% formalin, decalcification and paraffin embedding, sections were cut at 5 μm and stained with hematoxylin&eosin (A,B) or Masson's trichrome (C-J). Fibrocartilagenous cells can be seen in the AF from untreated IVDs (arrows in A) but frequently, multicellular chondrons appeared after injection of LA (240 mg/mL, 12 weeks survival; arrows in B). NP of an untreated (extradiscal injection) IVD (C) consists of islets of notochordal cells (asterisk) embedded in weakly stained extracellular matrix. In LA-treated NP, collagenous fibers can be seen (asterisks in D; 120 mg/mL LA, 4 weeks survival and E; 120 mg/mL LA, 12 weeks survival). […]

[3] = tested on: collagen II; experiment: Immunohistochemical analysis of collagen II in porcine IVD; assay type: in vivo; details: pig, LA 60 mg/mL, treated vs untreated IVDs
Method: Since effects of LA on the NP in the subsequent clinical study was planned to be assessed using MRI, the third series focused on the effects of LA (0.2 mL, 60 mg/mL) on sclerotization as measured by T2-weighted MRI. In addition, effects of LA on the expression of collagen I and II were studied by immunohistochemistry (IHC). The macroscopic changes after LA at 60 mg/mL were similar to those described above. The tissue was dehydrated in graded ethanol and embedded in paraffin. Sections were cut on a microtome, dewaxed, and incubated with polyclonal primary antibodies against collagen I (Abcam 34710) or II (Abcam 34712). The antibodies were diluted 250 (collagen I) or 200 (collagen II) times in phosphate-buffered saline containing 1% bovine serum albumin. Incubation was done at room temperature for 60 min. The sections were then incubated for 30 min at room temperature with horseradish peroxidase-conjugated secondary antibodies (Mach 2 Uni HRP, Biocare Medical) and immunoreactivity was visualized using diaminobenzidine (Biocare Medical).

Fibrotic changes at sites of extradiscal administration ([2]; 28-day follow-up, external 120 mg/mL): No fibrotic changes | Hemorrhage and inflammatory changes, LA vs vehicle ([2]; two-day follow up, intradiscal injection): not obviously more marked
SMILES: CC(O)C(=O)O (stereo not shown) [LA, lactic acid]
Leg pain (VAS) at baseline ([1]; 45 mg group, baseline): no leg pain | Mean leg pain at screening ([1]; 90 mg group): 3 mm | Mean leg pain at screening ([1]; 180 mg group): 14 mm | VAS (mm) for cLBP, Mean (SD) ([1]; LA 45 mg, Visit 1 (Screening), baseline): 19 mm and 19 (10) mm | VAS (mm) for cLBP, Mean (SD) ([1]; LA 45 mg, Visit 5 (3 months)): 22 (8) mm | VAS (mm) for cLBP, Mean (SD) ([1]; LA 45 mg, Visit 6 (6 months)): 52 (28) mm | VAS (mm) for cLBP, Mean (SD) ([1]; LA 45 mg, Visit 7 (12 months)): 59 (40) mm | VAS (mm) for cLBP, Mean (SD) ([1]; LA 90 mg, Visit 1 (Screening), baseline): 44 mm and 44 (25) mm | VAS (mm) for cLBP, Mean (SD) ([1]; LA 90 mg, Visit 5 (3 months)): 44 (22) mm | VAS (mm) for cLBP, Mean (SD) ([1]; LA 90 mg, Visit 6 (6 months)): 44 (6) mm | VAS (mm) for cLBP, Mean (SD) ([1]; LA 90 mg, Visit 7 (12 months)): 34 (14) mm | VAS (mm) for cLBP, Mean (SD) ([1]; LA 180 mg, Visit 1 (Screening), baseline): 52 mm and 52 (18) mm | VAS (mm) for cLBP, Mean (SD) ([1]; LA 180 mg, Visit 5 (3 months)): 27 (15) mm | VAS (mm) for cLBP, Mean (SD) ([1]; LA 180 mg, Visit 6 (6 months)): 28 (32) mm | VAS (mm) for cLBP, Mean (SD) ([1]; LA 180 mg, Visit 7 (12 months)): 61 (26) mm | Histological changes of the NP ([2]; 28-day follow-up, intradiscal 120 or 240 mg/mL): Dense bundles of fibrotic tissue | NP size (macroscopic) ([2]; 28 and 84 days after LA treatment vs normally appearing NP): reduction in NP size | Histological changes of the NP ([2]; 84-day follow-up, intradiscal 120 or 240 mg/mL): sclerosis (FIG. 9D-J), cystic degeneration (FIG. 9J), cartilaginous metaplasia (FIG. 9F, 9G), osteoid islands (FIG. 9F, 9G) and reduction in the extracellular matrix | Histological changes of the NP ([2]; two days after intradiscal injection): marked histological changes characterized by lysis of the extracellular matrix | Collagen II immunoreactivity [3]: no clear difference
